By IC50 is commonly meant the concentration at which inhibition is half-maximal.

Here are results for 32 compounds from patent US8030500B2, “Substituted isoindoles for the treatment and/or prevention of Aβ- related pathologies” (AstraZeneca AB, priority 2008, dated 2011).

The test concerns the target T1, human β-Secretase (Homo sapiens, UniProt P56817).
T1 construct: soluble part of the human β-Secretase (AA 1-AA 460); Fc domain of IgG1; made in house
The test is described as follows: TR-FRET assay (β-secretase enzyme, sBACE-Fc). The class given is biochemical. As for the experimental part: The β-secretase enzyme used in the TR-FRET is prepared as follows:
The cDNA for the soluble part of the human β-Secretase (AA 1-AA 460) was cloned using the ASP2-Fc10-1-IRES-GFP-neoK mammalian expression vector. The gene was fused to the Fc domain of IgG1 (affinity tag) and stably cloned into HEK 293 cells.
The robotic systems Biomek FX and Velocity 11 were used for all liquid handling and the enzyme and substrate solutions were kept on ice until they were placed in the robotic system. Enzyme (9 μl) was added to the plate then 1 μl of compound in dimethylsulphoxide was added, mixed and pre-incubated for 10 minutes. Substrate (10 μl) was then added, mixed and the reaction proceeded for 15 minutes at room temperature. The reaction was stopped with the addition of Stop solution (7 μl, NaAcetate, pH 9). […] The dimethylsulphoxide control, instead of test compound, defined the 100% activity level and 0% activity was defined by wells lacking enzyme (replaced with reaction buffer).
In general terms: Time-resolved FRET reads energy transfer from a long-lived donor to a nearby acceptor.

The mark [1] stands for this setting: soluble human β-secretase (sBACE-Fc), substrate (Europium)[…](Qsy7) 100 nM, pH4.5, read-out: IC50 in TR-FRET assay.

Structures can show the parent of a compound that is named as a salt. Where two headings read alike, the source gives them in different places.

T1 sequence (P56817 22-460): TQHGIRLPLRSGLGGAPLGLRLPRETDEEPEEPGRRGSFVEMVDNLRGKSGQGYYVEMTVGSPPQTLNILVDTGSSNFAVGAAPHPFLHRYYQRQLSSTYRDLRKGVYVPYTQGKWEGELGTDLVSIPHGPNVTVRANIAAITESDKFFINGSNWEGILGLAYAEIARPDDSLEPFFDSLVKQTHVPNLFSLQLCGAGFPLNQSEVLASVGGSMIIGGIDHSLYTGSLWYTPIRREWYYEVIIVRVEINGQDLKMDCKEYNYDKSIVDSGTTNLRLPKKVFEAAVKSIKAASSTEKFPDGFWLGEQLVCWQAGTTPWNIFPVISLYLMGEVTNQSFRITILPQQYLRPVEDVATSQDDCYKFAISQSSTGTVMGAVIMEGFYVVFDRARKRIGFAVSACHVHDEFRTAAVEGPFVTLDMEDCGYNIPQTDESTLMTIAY

As for `Cc1cc(C2(c3cc(-c4cncnc4)ccc3F)N=C(N)c3c(F)cccc32)ccn1` (centres unmarked) [Example 1, 4-Fluoro-1-(2-fluoro-5-(pyrimidin-5-yl)phenyl)-1-(2-methylpyridin-4-yl)-1H-isoindol-3-amine], the IC50 under setting [1] was determined as 1600 nM.
Take `Cc1cc(C2(c3cc(-c4cncc(S(C)(=O)=O)c4)ccc3F)N=C(N)c3c(F)cccc32)ccn1` (centres unmarked) [Example 2, 4-Fluoro-1-(2-fluoro-5-(5-(methylsulfonyl)pyridin-3-yl)phenyl)-1-(2-methylpyridin-4-yl)-1H-isoindol-3-amine]: the IC50 (stated in the text of the example, read-out: IC50 in the FRET assay) was found to be 27000 nM.
Turning to `Cc1cc(C2(c3cc(-c4cncc(C#N)c4)ccc3F)N=C(N)c3c(F)cccc32)ccn1` (centres unmarked) [Example 3, 5-(3-(3-Amino-4-fluoro-1-(2-methylpyridin-4-yl)-1H-isoindol-1-yl)-4-fluorophenyl)nicotinonitrile], the IC50 under setting [1] worked out at 1800 nM.
Still for that read-out and setting: the figure for `Cc1cc(C2(c3cc(-c4cncc(F)c4)ccc3F)N=C(N)c3c(F)cccc32)ccn1` (centres unmarked) [Example 4, 4-Fluoro-1-(2-fluoro-5-(5-fluoropyridin-3-yl)phenyl)-1-(2-methylpyridin-4-yl)-1H-isoindol-3-amine] is 1600 nM; for `Cc1cc(C2(c3cc(-c4cccnc4)ccc3F)N=C(N)c3c(F)cccc32)ccn1` (centres unmarked) [Example 5, 4-Fluoro-1-(2-fluoro-5-(pyridin-3-yl)phenyl)-1-(2-methylpyridin-4-yl)-1H-isoindol-3-amine] it is 1700 nM; for `NC1=NC(c2ccnc(C(F)(F)F)c2)(c2cc(-c3cncnc3)ccc2F)c2cccc(F)c21` (centres unmarked) [Example 6, 4-Fluoro-1-(2-fluoro-5-(pyrimidin-5-yl)phenyl)-1-(2-(trifluoromethyl)pyridin-4-yl)-1H-isoindol-3-amine] it is 1100 nM.
On to `N#Cc1cncc(-c2ccc(F)c(C3(c4ccnc(C(F)(F)F)c4)N=C(N)c4c(F)cccc43)c2)c1` (centres unmarked) [Example 7, 5-(3-(3-Amino-4-fluoro-1-(2-(trifluoromethyl)pyridin-4-yl)-1H-isoindol-1-yl)-4-fluorophenyl)nicotinonitrile], for which the half-inhibitory concentration (IC50) under setting [1] was found to be 2000 nM.
`CS(=O)(=O)c1cncc(-c2ccc(F)c(C3(c4ccnc(C(F)(F)F)c4)N=C(N)c4c(F)cccc43)c2)c1` (centres unmarked) [Example 8, 4-Fluoro-1-(2-fluoro-5-(5-(methylsulfonyl)pyridin-3-yl)phenyl)-1-(2-(trifluoromethyl)pyridin-4-yl)-1H-isoindol-3-amine]: the IC50 under setting [1] turned out to be 12000 nM.
Still for that read-out and setting: the figure for `NC1=NC(c2ccncc2)(c2cccc(-c3cccc(Cl)c3)c2)c2cccc(F)c21` (centres unmarked) [Example 9, 1-(3′-Chlorobiphenyl-3-yl)-4-fluoro-1-(pyridin-4-yl)-1H-isoindol-3-amine] is 75 nM; for `NC1=NC(c2ccncc2)(c2cccc(-c3cncnc3)c2)c2cccc(F)c21` (centres unmarked) [Example 10, 4-Fluoro-1-(pyridin-4-yl)-1-(3-(pyrimidin-5-yl)phenyl)-1H-isoindol-3-amine] it is 160 nM; for `COc1cccc(-c2cccc(C3(c4ccncc4)N=C(N)c4c(F)cccc43)c2)c1F` (centres unmarked) [Example 14, 4-Fluoro-1-(2′-fluoro-3′-methoxybiphenyl-3-yl)-1-(pyridin-4-yl)-1H-isoindol-3-amine] it is 95 nM.
For the compound `NC1=NC(c2ccncc2)(c2cccc(-c3cncc(F)c3)c2)c2cccc(F)c21` (centres unmarked) [Example 15, 4-Fluoro-1-(3-(5-fluoropyridin-3-yl)phenyl)-1-(pyridin-4-yl)-1H-isoindol-3-amine], the IC50 under setting [1] was determined as 140 nM.
For the compound `NC1=NC(c2ccncc2)(c2ccc(F)c(-c3cncnc3)c2)c2cccc(F)c21` (centres unmarked) [Example 16, 4-Fluoro-1-(4-fluoro-3-(pyrimidin-5-yl)phenyl)-1-(pyridin-4-yl)-1H-isoindol-3-amine], the IC50 under setting [1] was 320 nM.
On the same count and under the same terms, then `COc1ccc(C2(c3cccc(-c4cncnc4)c3)N=C(N)c3c(F)cccc32)cc1` (centres unmarked) [Example 17, 4-Fluoro-1-(4-methoxyphenyl)-1-(3-(pyrimidin-5-yl)phenyl)-1H-isoindol-3-amine], with 110 nM; and `COc1cccc(-c2cc(C3(c4cncnc4)N=C(N)c4c(F)cccc43)ccc2F)c1F` (centres unmarked) [Example 18, 1-(2′,6-Difluoro-3′-methoxybiphenyl-3-yl)-4-fluoro-1-(pyrimidin-5-yl)-1H-isoindol-3-amine], with 3400 nM; and `COc1ccnc(-c2cc(C3(c4cncnc4)N=C(N)c4c(F)cccc43)ccc2F)c1` (centres unmarked) [Example 19, 4-Fluoro-1-(4-fluoro-3-(4-methoxypyridin-2-yl)phenyl)-1-(pyrimidin-5-yl)-1H-isoindol-3-amine], with 4100 nM.
For `NC1=NC(c2cccc(-c3cncnc3)c2)(c2ccnc(C(F)(F)F)c2)c2cccc(F)c21` (centres unmarked) [Example 20, 4-Fluoro-1-(3-(pyrimidin-5-yl)phenyl)-1-(2-(trifluoromethyl)pyridin-4-yl)-1H-isoindol-3-amine], under setting [1], the IC50 was 240 nM.
Same read-out and setting: then `Cc1cc(C2(c3cccc(-c4cncnc4)c3)N=C(N)c3c(F)cccc32)cc(C)n1` (centres unmarked) [Example 21, 1-(2,6-Dimethylpyridin-4-yl)-4-fluoro-1-(3-(pyrimidin-5-yl)phenyl)-1H-isoindol-3-amine], with 1100 nM; and `Cc1cc(C2(c3cccc(-c4cncc(C#N)c4)c3)N=C(N)c3c(F)cccc32)cc(C)n1` (centres unmarked) [Example 22, 5-(3-(3-Amino-1-(2,6-dimethylpyridin-4-yl)-4-fluoro-1H-isoindol-1 yl)phenyl)nicotinonitrile], with 870 nM; and `N#Cc1cncc(-c2cccc(C3(c4ccnc(C(F)(F)F)c4)N=C(N)c4c(F)cccc43)c2)c1` (centres unmarked) [Example 23, 5-(3-(3-Amino-4-fluoro-1-(2-(trifluoromethyl)pyridin-4-yl)-1H-isoindol-1-yl)phenyl)nicotinonitrile], with 250 nM.
On the same count and under the same terms, the figure for `COc1cc(C2(c3ccc(F)c(-c4cncnc4)c3)N=C(N)c3c(F)cccc32)ccn1` (centres unmarked) [Example 24, 4-Fluoro-1-(4-fluoro-3-(pyrimidin-5-yl)phenyl)-1-(2-methoxypyridin-4-yl)-1H-isoindol-3-amine] is 280 nM; for `N#Cc1cncc(-c2cc(C3(c4ccnc(C(F)(F)F)c4)N=C(N)c4c(F)cccc43)ccc2F)c1` (centres unmarked) [Example 25, 5-(5-(3-Amino-4-fluoro-1-(2-(trifluoromethyl)pyridin-4-yl)-1H-isoindol-1-yl)-2-fluorophenyl) nicotinonitrile trifluoroacetate] it is 370 nM.
The same measure, in the same setting: then `N#Cc1cncc(-c2cc(C3(c4ccncc4)N=C(N)c4c(F)cccc43)ccc2F)c1` (centres unmarked) [Example 26, 5-(5-(3-Amino-4-fluoro-1-(pyridin-4-yl)-1H-isoindol-1-yl)-2-fluorophenyl) nicotinonitrile], with 460 nM; and `COc1cc(C2(c3cccc(-c4cncnc4)c3)N=C(N)c3c(F)cccc32)ccn1` (centres unmarked) [Example 27, 4-Fluoro-1-(2-methoxypyridin-4-yl)-1-(3-(pyrimidin-5-yl)phenyl)-1H-isoindol-3-amine], with 400 nM.
As to `COc1cc(C2(c3cccc(-c4cncc(C#N)c4)c3)N=C(N)c3c(F)cccc32)ccn1` (centres unmarked) [Example 28, 5-(3-(3-Amino-4-fluoro-1-(2-methoxypyridin-4-yl)-1H-isoindol-1-yl)phenyl)nicotinonitrile acetate], the IC50 under setting [1] amounted to 470 nM.
In the case of `COc1cc(C2(c3cccc(-c4cnccn4)c3)N=C(N)c3c(F)cccc32)ccn1` (centres unmarked) [Example 29, 4-Fluoro-1-(2-methoxypyridin-4-yl)-1-(3-(pyrazin-2-yl)phenyl)-1H-isoindol-3-amine acetate], under setting [1], the IC50 is 200 nM.
Same read-out and setting: then `NC1=NC(c2cccc(-c3cnccn3)c2)(c2ccnc(C(F)(F)F)c2)c2cccc(F)c21` (centres unmarked) [Example 30, 4-Fluoro-1-(3-(pyrazin-2-yl)phenyl)-1-(2-(trifluoromethyl)pyridin-4-yl)-1H-isoindol-3-amine], with 320 nM; and `Cc1cc(C2(c3cccc(-c4cncnc4)c3)N=C(N)c3c(F)cccc32)cc(C(F)F)n1` (centres unmarked) [Example 32, 1-(2-(Difluoromethyl)-6-methylpyridin-4-yl)-4-fluoro-1-(3-(pyrimidin-5-yl)phenyl)-1H-isoindol-3-amine], with 90 nM.
The same measure, in the same setting: then `Cc1cc(C2(c3ccnc(-c4cncnc4)c3)N=C(N)c3c(F)cccc32)cc(C(F)F)n1` (centres unmarked) [Example 33, 1-(2-(Difluoromethyl)-6-methylpyridin-4-yl)-4-fluoro-1-(2-(pyrimidin-5-yl)pyridin-4-yl)-1H-isoindol-3-amine], with 730 nM.
On the same count and under the same terms, then `COc1c(C)cc(C2(c3ccnc(-c4cncnc4)c3)N=C(N)c3c(F)cccc32)cc1F` (centres unmarked) [Example 34, 4-Fluoro-1-(3-fluoro-4-methoxy-5-methylphenyl)-1-(2-(pyrimidin-5-yl)pyridin-4-yl)-1H-isoindol-3-amine], with 81 nM; and `COc1c(C)cc(C2(c3ccnc(-c4cncnc4)c3)N=C(N)c3c(F)cccc32)cc1C` (centres unmarked) [Example 35, 4-Fluoro-1-(4-methoxy-3,5-dimethylphenyl)-1-(2-(pyrimidin-5-yl)pyridin-4-yl)-1H-isoindol-3-amine], with 35 nM; and `COc1c(C)cc(C2(c3ccnc(-c4cncnc4)c3)N=C(N)c3c(F)cccc32)nc1C` (centres unmarked) [Example 36, 4-Fluoro-1-(5-methoxy-4,6-dimethylpyridin-2-yl)-1-(2-(pyrimidin-5-yl)pyridin-4-yl)-1H-isoindol-3-amine], with 490 nM.
